Data on 15 compounds can be found in publication PMC3462592 (Journal of medicinal chemistry, 2012).

Data set [1] can be described thus: Human liver microsome stability assay. Format: in vitro ADME. The settings on record: for microsomal CLint at 1 μM: human, human liver microsomes, pH 7.4; for HLM t1/2: human liver microsomes 0.1 mg/mL, 1 μM compound, 37 °C, at least two experiments. A general note: Liver microsomes are vesicles of endoplasmic reticulum, rich in cytochrome P450 enzymes.
The test system of another data set is HIV-1 NL4-3 (wild-type). Briefly: microbe, parasite or virus in culture. Format: cell-based. The settings on record: for SI (selectivity index): ratio CC50/EC50; for EC50: Human immunodeficiency virus 1, NL43, TZM-bl.
Data set [2] can be described thus: Aqueous solubility determination. The class given is physicochemical.
Data set [3] in a line: In vitro cytotoxicity in TZM-bl cells. The class given is cell-based. The settings on record: human.

Molecules are shown by their SMILES. Values after ≈ are worked out from the molar mass of the structure shown. Read-outs that look alike come from different tables or passages of the source.

Compound `Cc1cc(CCC#N)cc(C)c1Oc1cc(Nc2ccc(C#N)cc2)c(N)cc1C(N)=O` [15e, 4-Carbanoyl-N^1-(4′-cyanophenyl)-5-(4″-cyanoethyl-2″,6″-dimethylphenoxy)benzene-1,2-diamine] registered a microsomal CLint at 1 μM in data set [1] of 160 µL/min/mg. In the case of `Cc1cc(CCC#N)cc(C)c1Oc1cc(Nc2ccc(C#N)cc2)c(N)cc1C(F)(F)F` [15a, 5-(4″-Cyanoethyl-2″,6″-dimethylphenoxy)-N^1-(4′-cyanophenyl)-4-trifluoromethylbenzene-1,2-diamine], in the data set on HIV-1 NL4-3 (wild-type) (Table 1), the “SI (selectivity index)” value was more than 6454. The compound further had a solubility at 4 h in data set [2] (0.01 M HCl, pH 2, Aqueous solubility pH 2.0, Table 4, pH 2.0, triplicate) of 0.33 µg/mL (≈ 0.733 µM). This compound also yielded an intrinsic clearance (microsomal CLint) at 1 μM in data set [1] of 120 µL/min/mg. For the compound `COC(=O)c1cc(N)c(Nc2ccc(C#N)cc2)cc1Oc1c(C)cc(CCC#N)cc1C` [15c, 5-(4″-Cyanoethyl-2″,6″-dimethylphenoxy)-N^1-(4′-cyanophenyl)-4-methoxycarbonylbenzene-1,2-diamine], the microsomal CLint at 1 μM in data set [1] was determined as 40 µL/min/mg.

For `Cc1cc(/C=C/C#N)cc(C)c1Oc1cc(Nc2ccc(C#N)cc2)c(N)cc1[N+](=O)[O-]` [compound 3], the solubility at 4 h in data set [2] worked out at 0.29 µg/mL (≈ 0.682 µM).

In turn, `Cc1cc(/C=C/C#N)cc(C)c1Nc1ccnc(Nc2ccc(C#N)cc2)n1` [compound 2, rilpivirine, reference compound] registered a CC50 at 4 days in data set [3] of 19400 nM. Besides, in data set [1], the “HLM t1/2” value is listed as 34.2 min. As for `CNC(=O)c1cc(N)c(Nc2ccc(C#N)cc2)cc1Oc1c(C)cc(/C=C/C#N)cc1C` [14f, (E)-N^1-(4′-Cyanophenyl)-5-(4″-cyanovinyl-2″,6″-dimethylphenoxy)-4-methylcarbamoylbenzene-1,2-diamine], the EC50 in the data set with HIV-1 NL4-3 (wild-type) is 5.72 nM; in the data set on HIV-1 NL4-3 (wild-type) (read-out: EC50 NL4-3 (wt)), 5.72 ± 0.94 nM. The compound further gave a microsomal CLint at 1 μM in data set [1] of 150 µL/min/mg. In turn, `CNC(=O)c1cc(N)c(Nc2ccc(C#N)cc2)cc1Oc1c(C)cc(CCC#N)cc1C` [15f, 5-(4″-Cyanoethyl-2″,6″-dimethylphenoxy)-N^1-(4′-cyanophenyl)-4-methylcarbanoylbenzene-1,2-diamine] returned a microsomal CLint at 1 μM in data set [1] of 120 µL/min/mg. Turning to `COC(=O)c1cc(N)c(Nc2ccc(C#N)cc2)cc1Oc1c(C)cc(/C=C/C#N)cc1C` [14c, (E)-N^1-(4′-Cyanophenyl)-5-(4″-cyanovinyl-2″,6″-dimethylphenoxy)-4-methoxycarbonylbenzene-1,2-diamine], the EC50 in the data set with HIV-1 NL4-3 (wild-type) came to 2.74 nM; in the data set on HIV-1 NL4-3 (wild-type) (read-out: EC50 NL4-3 (wt)) it was 2.74 ± 0.71 nM. This compound also returned a microsomal CLint at 1 μM in data set [1] of 20 µL/min/mg.

On to `Cc1cc(/C=C/C#N)cc(C)c1Oc1cc(Nc2ccc(C#N)cc2)c(N)cc1C(F)(F)F` [14a, (E)-N^1-(4′-Cyanophenyl)-5-(4″-cyanovinyl-2″,6″-dimethylphenoxy)-4-trifluoromethylbenzene-1,2-diamine], for which, in data set [1], the microsomal CLint at 1 μM came to 150 µL/min/mg. As to `Cc1cc(/C=C/C#N)cc(C)c1Oc1cc(Nc2ccc(C#N)cc2)c(N)cc1C(=O)O` [14d, (E)-4-Carboxy-N^1-(4′-cyanophenyl)-5-(4″-cyanovinyl-2″,6″-dimethylphenoxy)benzene-1,2-diamine], the EC50 in the data set on HIV-1 NL4-3 (wild-type) (read-out: EC50 NL4-3 (wt)) worked out at 230 ± 38 nM. The compound `Cc1cc(CCC#N)cc(C)c1Oc1cc(Nc2ccc(C#N)cc2)c(N)cc1CO` [15h, 5-(4″-Cyanoethyl-2″,6″-dimethylphenoxy)-N^1-(4′-cyanophenyl)-4-hydroxymethylbenzene-1,2-diamine] yielded a microsomal CLint at 1 μM in data set [1] of 330 µL/min/mg. In data set [2] (0.01 M HCl, pH 2), `Cc1cc(CO)cc(C)c1Oc1cc(Nc2ccc(C#N)cc2)c(N)cc1CO` [13e, N^1-(4′-Cyanophenyl)-5-(2″,6″-dimethyl-4″-hydroxymethylphenoxy)-4-hydroxymethylbenzene-1,2-diamine] gave a solubility at 4 h of 20.9 to 44.7 µg/mL (≈ 53.7 to 115 µM). Turning to `Cc1cc(/C=C/C#N)cc(C)c1Oc1cc(Nc2ccc(C#N)cc2)c(N)cc1CO` [14h, (E)-N^1-(4′-Cyanophenyl)-5-(4″-cyanovinyl-2″,6″-dimethylphenoxy)-4-hydroxymethylbenzene-1,2-diamine], the figures for the EC50 in the data set with HIV-1 NL4-3 (wild-type), with HIV-1 NL4-3 (wild-type) (read-out: EC50 NL4-3) and in the data set on HIV-1 NL4-3 (wild-type) (read-out: EC50 NL4-3 (wt)) were 0.53 nM, 0.53 nM and 0.53 ± 0.13 nM, respectively. The “HLM t1/2” value in data set [1] was found to be 30.2 min.

Consider `Cc1cc(/C=C/C#N)cc(C)c1Oc1cc(Nc2ccc(C#N)cc2)c(N)cc1C(N)=O` [14e, (E)-4-Carbamoyl-N^1-(4′-cyanophenyl)-5-(4″-cyanovinyl-2″,6″-dimethylphenoxy)benzene-1,2-diamine], for which the EC50 with HIV-1 NL4-3 (wild-type) was determined as 0.87 nM; in the data set on HIV-1 NL4-3 (wild-type) (read-out: EC50 NL4-3) it was 0.87 nM; in the data set on HIV-1 NL4-3 (wild-type) (read-out: EC50 NL4-3 (wt)), 0.87 ± 0.28 nM. Take `Cc1cc(CCC#N)cc(C)c1Oc1cc(Nc2ccc(C#N)cc2)c(N)cc1N` [15i, 5-(4″-Cyanoethyl-2″,6″-dimethyl)phenoxy-N^1-(4′-cyanophenyl)benzene-1,2,4-triamine]: the “SI (selectivity index)” value with HIV-1 NL4-3 (wild-type) (Table 2) is more than 3906.

For orientation: microsomal CLint means the capacity of the preparation to metabolise the compound, expressed as a volume cleared per time. A high value points to faster metabolism. As usually defined, the solubility is the concentration that dissolves in the medium under given conditions. High values mean much dissolved substance, low ones little dissolved substance. One may read the CC50 as the concentration that lowers cell viability or growth by half. Read a low CC50 as greater toxicity to the cells. As a reminder, the EC50 is the concentration that produces a half-maximal response.
